Consider 26 molecules from patent publication US20110263629A1, “AMIDES OF DIAZABICYCLOOCTANES AND USES THEREOF” (Targacept, Inc., priority 2008, published 2011).

Assay [1] has as its target T1, human α4β2 nAChR subtype (Homo sapiens, UniProt P17787+P43681).
T1 construct: expressed in transfected cells; host or cells: SH-EP1 clonal cells expressing human α4β2
The assay is described as follows: Radioligand binding ([3H]nicotine) at human α4β2 nAChR, SH-EP1/human α4β2 clonal cell membranes. Conditions: read-out: Human α4β2 Ki. On the procedure: Preparation of membranes from SH-EP1/human α4β2 clonal cells: Cell pellets from 40 150 mm culture dishes were pooled, and homogenized by Polytron (Kinematica GmbH, Switzerland) in 20 milliliters of ice-cold preparative buffer. The homogenate was centrifuged at 48,000 g for 20 minutes at 4° C. The resulting pellet was re-suspended in 20 mL of ice-cold preparative buffer and stored at −20° C.
(§1) On the day of the assay, the frozen membranes were thawed and spun at 48,000×g for 20 min. The supernatant was decanted and discarded. The pellet was resuspended in Dulbecco's phosphate buffered saline (PBS, Life Technologies) pH 7.4 and homogenized with the Polytron for 6 seconds. Protein concentrations were determined using a Pierce BCA Protein Assay Kit, with bovine serum albumin as the standard (Pierce Chemical Company, Rockford, Ill.).
(§2) Incubation was terminated by rapid filtration on a multi-manifold tissue harvester (Brandel, Gaithersburg, Md.) using GF/B filters presoaked in 0.33% polyethyleneimine (w/v) to reduce non-specific binding. Tissue was rinsed 3 times in PBS, pH 7.4. Scintillation fluid was added to filters containing the washed tissue and allowed to equilibrate. Filters were then counted to determine radioactivity bound to the membranes by liquid scintillation counting (2200CA Tri-Carb LSC, Packard Instruments, 50% efficiency or Wallac Trilux 1450 MicroBeta, 40% efficiency, Perkin Elmer).
(§3) Data were expressed as disintegrations per minute (DPMs). Within each assay, each point had 2-3 replicates. The replicates for each point were averaged and plotted against the log of the drug concentration. IC50, which is the concentration of the compound that produces 50% inhibition of binding, was determined by least squares non-linear regression. Ki values were calculated using the Cheng-Prussof equation (1973): […]

For assay [2], the target named is T2, rat α7 nAChR subtype (Rattus norvegicus, UniProt Q05941).
T2 construct: Preparation of membranes from rat hippocampus; from tissue; host or cells: rat hippocampus membranes
The assay is described as follows: Radioligand binding ([3H]MLA) at α7 nAChR, rat hippocampus membranes. How it is done: Preparation of membranes from rat hippocampus: Rats (female, Sprague-Dawley), weighing 150-250 g, were maintained on a 12 h light/dark cycle and were allowed free access to water and food supplied by PMI Nutrition International, Inc. Animals were anesthetized with 70% CO2, then decapitated. Brains were removed and placed on an ice-cold platform. The hippocampus was removed and placed in 10 volumes (weight:volume) of ice-cold preparative buffer (137 mM NaCl, 10.7 mM KCl, 5.8 mM KH2PO4, 8 mM Na2HPO4, 20 mM HEPES (free acid), 5 mM iodoacetamide, 1.6 mM EDTA, pH 7.4); PMSF, dissolved in methanol to a final concentration of 100 μM, was added and the tissue suspension was homogenized by Polytron. The homogenate was centrifuged at 18,000×g for 20 min at 4° C. and the resulting pellet was re-suspended in 10 volumes of ice-cold water. After 60 min incubation on ice, a new pellet was collected by centrifugation at 18,000×g for 20 min at 4° C. The final pellet was re-suspended in 10 volumes of buffer and stored at −20° C.
On the day of the assay, tissue was thawed, centrifuged at 18,000×g for 20 min, and then re-suspended in ice-cold PBS (Dulbecco's Phosphate Buffered Saline, 138 mM NaCl, 2.67 mM KCl, 1.47 mM KH2PO4, 8.1 mM Na2HPO4, 0.9 mM CaCl2, 0.5 mM MgCl2, Invitrogen/Gibco, pH 7.4) to a final concentration of approximately 2 mg protein/mL. Protein was determined by the method of Lowry et al., J. Biol. Chem. 193: 265 (1951), herein incorporated by reference, using bovine serum albumin as the standard.
Assay: The binding of [^3H]MLA was measured using a modification of the methods of Davies et al., Neuropharmacol. 38: 679 (1999), herein incorporated by reference. [^3H]MLA (Specific Activity=25-35 Ci/mmol) was obtained from Tocris. The binding of [^3H]MLA was determined using a 2 h incubation at 21° C. Incubations were conducted in 48-well micro-titre plates and contained about 200 μg of protein per well in a final incubation volume of 300 μL. The incubation buffer was PBS and the final concentration of [^3H]MLA was 5 nM. The binding reaction was terminated by filtration of the protein containing bound ligand onto glass fiber filters (GF/B, Brandel) using a Brandel Tissue Harvester at room temperature. Filters were soaked in de-ionized water containing 0.33% polyethyleneimine to reduce non-specific binding. Each filter was washed with PBS (3×1 mL) at room temperature. Non-specific binding was determined by inclusion of 50 μM non-radioactive MLA in selected wells.
The inhibition of [^3H]MLA binding by test compounds was determined by including seven different concentrations of the test compound in selected wells. Each concentration was replicated in triplicate. IC50 values were estimated as the concentration of compound that inhibited 50 percent of specific [^3H]MLA binding. Inhibition constants (Ki values), reported in nM, were calculated from the IC50 values using the method of Cheng et al., Biochem. Pharmacol. 22: 3099-3108 (1973), herein incorporated by reference.

Assay [3] concerns the target T3, rat α4β2 nAChR subtype (Rattus norvegicus, UniProt P09483+P12390).
T3 construct: Preparation of membranes from rat cortex; from tissue; host or cells: rat cerebral cortex membranes
The assay is described as follows: Radioligand binding ([3H]nicotine) at rat α4β2 nAChR, rat cortex membranes. Conditions: read-out: Rat α4β2 Ki. How it is done:
Preparation of membranes from rat cortex: Rats (female, Sprague-Dawley), weighing 150-250 g, were maintained on a 12 h light/dark cycle and were allowed free access to water and food supplied by PMI Nutrition International, Inc. Animals were anesthetized with 70% CO2, and then decapitated. Brains were removed and placed on an ice-cold platform. The cerebral cortex was removed and placed in 20 volumes (weight:volume) of ice-cold preparative buffer (137 mM NaCl, 10.7 mM KCl, 5.8 mM KH2PO4, 8 mM Na2HPO4, 20 mM HEPES (free acid), 5 mM iodoacetamide, 1.6 mM EDTA, pH 7.4); PMSF, dissolved in methanol to a final concentration of 100 μM, was added and the suspension was homogenized by Polytron. The homogenate was centrifuged at 18,000×g for 20 min at 4° C. and the resulting pellet was re-suspended in 20 volumes of ice-cold water. After 60 min incubation on ice, a new pellet was collected by centrifugation at 18,000×g for 20 min at 4° C. The final pellet was re-suspended in 10 volumes of buffer and stored at −20° C.
as §1, §2, §3

Setting [4] is: rat hippocampus membranes, 5 nM [3H]MLA, read-out: Rat α7 Ki.
Setting [5] is: rat cortex membranes, 5 nM [3H]nicotine.

Read-outs that look alike come from different tables or passages of the source. Some results are limits rather than exact numbers.

T1 sequence (P43681 29-627 limits assumed): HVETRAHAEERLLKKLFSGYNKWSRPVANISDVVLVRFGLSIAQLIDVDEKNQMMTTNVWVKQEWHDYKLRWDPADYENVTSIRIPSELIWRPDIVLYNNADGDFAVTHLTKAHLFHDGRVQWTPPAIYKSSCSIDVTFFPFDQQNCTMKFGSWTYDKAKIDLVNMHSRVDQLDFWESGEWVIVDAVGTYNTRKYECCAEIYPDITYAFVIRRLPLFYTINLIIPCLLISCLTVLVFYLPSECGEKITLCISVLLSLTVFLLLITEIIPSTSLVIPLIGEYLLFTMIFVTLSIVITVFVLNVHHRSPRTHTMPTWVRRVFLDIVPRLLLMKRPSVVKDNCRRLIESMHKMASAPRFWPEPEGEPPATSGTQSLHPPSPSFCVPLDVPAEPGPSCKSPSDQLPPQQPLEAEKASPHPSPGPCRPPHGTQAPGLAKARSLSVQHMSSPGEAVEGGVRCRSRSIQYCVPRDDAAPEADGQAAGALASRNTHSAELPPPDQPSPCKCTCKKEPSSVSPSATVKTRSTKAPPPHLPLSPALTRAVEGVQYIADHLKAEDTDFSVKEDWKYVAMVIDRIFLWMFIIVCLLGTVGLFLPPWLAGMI
T1 sequence (P17787 26-502): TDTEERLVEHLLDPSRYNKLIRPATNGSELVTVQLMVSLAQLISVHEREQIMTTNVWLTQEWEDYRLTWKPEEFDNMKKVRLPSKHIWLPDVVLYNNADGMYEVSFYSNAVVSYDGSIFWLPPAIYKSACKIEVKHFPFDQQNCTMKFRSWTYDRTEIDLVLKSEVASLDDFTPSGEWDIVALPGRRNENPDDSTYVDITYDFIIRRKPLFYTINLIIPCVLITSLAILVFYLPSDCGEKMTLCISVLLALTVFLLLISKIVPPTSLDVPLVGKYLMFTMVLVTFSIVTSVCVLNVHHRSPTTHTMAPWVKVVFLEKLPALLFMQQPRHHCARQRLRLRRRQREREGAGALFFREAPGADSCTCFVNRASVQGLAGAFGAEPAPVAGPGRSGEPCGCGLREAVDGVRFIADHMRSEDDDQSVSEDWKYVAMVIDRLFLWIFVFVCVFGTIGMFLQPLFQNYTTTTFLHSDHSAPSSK
T3 sequence (P09483 31-630): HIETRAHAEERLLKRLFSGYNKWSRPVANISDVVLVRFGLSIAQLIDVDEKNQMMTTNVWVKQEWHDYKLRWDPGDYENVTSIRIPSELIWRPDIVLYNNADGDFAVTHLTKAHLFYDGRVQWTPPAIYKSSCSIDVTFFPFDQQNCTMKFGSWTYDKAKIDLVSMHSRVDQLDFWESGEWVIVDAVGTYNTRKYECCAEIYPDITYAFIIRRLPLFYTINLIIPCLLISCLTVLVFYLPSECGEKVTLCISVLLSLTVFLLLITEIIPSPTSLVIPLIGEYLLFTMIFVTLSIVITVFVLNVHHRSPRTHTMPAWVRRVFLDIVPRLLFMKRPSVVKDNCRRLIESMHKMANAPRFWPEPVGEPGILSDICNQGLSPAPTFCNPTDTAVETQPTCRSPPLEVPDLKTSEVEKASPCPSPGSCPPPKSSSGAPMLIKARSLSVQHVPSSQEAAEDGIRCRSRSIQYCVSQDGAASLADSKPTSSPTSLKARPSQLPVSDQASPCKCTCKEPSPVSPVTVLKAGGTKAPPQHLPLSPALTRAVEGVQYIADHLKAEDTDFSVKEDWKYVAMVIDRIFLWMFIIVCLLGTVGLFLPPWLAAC
T3 sequence (P12390 25-500): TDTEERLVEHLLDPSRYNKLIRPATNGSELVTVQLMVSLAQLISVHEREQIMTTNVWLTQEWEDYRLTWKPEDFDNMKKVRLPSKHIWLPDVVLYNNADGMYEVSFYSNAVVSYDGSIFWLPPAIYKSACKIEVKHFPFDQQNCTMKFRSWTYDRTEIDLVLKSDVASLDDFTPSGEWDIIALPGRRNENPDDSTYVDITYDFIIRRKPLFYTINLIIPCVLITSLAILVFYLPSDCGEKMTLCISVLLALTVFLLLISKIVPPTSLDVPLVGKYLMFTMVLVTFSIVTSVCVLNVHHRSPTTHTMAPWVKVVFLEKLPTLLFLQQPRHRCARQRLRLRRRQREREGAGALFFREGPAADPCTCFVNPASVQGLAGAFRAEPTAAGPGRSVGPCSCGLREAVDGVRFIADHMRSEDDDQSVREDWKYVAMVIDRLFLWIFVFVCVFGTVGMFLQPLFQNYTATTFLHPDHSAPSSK
T2 sequence (Q05941 23-502): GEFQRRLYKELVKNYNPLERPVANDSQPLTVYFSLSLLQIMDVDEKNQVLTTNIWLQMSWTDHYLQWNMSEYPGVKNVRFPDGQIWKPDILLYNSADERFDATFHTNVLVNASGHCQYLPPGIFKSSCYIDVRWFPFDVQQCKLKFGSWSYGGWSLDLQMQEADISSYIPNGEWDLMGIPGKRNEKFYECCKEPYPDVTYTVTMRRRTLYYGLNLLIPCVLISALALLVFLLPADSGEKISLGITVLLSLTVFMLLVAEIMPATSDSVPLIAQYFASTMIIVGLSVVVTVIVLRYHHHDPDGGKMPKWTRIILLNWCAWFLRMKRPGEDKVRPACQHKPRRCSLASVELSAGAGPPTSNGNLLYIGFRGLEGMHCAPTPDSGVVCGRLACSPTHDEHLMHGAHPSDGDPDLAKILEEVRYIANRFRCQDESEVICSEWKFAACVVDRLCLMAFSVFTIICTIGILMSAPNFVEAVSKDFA

As to `O=C(C1CC1)C1N[C@H]2CNC[C@@H]1C2` (some centres unmarked), the Ki in assay [1] was 480 nM; in assay [2], 1300 nM.

Turning to `CCOC(=O)N1C[C@H]2CN[C@H](C2)C1`, the values for the Ki in assay [1], in assay [2] and in assay [3] were 15 nM, 4200 nM and 11 nM, respectively.

As to `O=C(C1CC1)N1CC2CNC(C2)C1` (centres unmarked), the Ki in assay [1] is 1.5 nM; in assay [2] (setting [4]) it was 290 nM; in assay [3] it was 1.3 nM.

On to `O=C(N1CC2CNC(C2)C1)C(F)(F)F` (centres unmarked), for which the inhibition constant (Ki) in assay [1] is 2100 nM; in assay [2], more than 10000 nM; in assay [3], 2400 nM.

Take `O=C(C1CC=CC1)N1CC2CNC(C2)C1` (centres unmarked): the Ki in assay [1] turned out to be 13 nM; in assay [2], 64 nM; in assay [3], 11 nM.

Turning to `O=C(C1CC=CC1)N1CC2CNCC1C2` (centres unmarked), the inhibition constant Ki was 21 nM in assay [1], 160 nM in assay [2] (setting [4]) and 120 nM in assay [3] (setting [5]).

Take `CCOC(=O)N1C[C@@H]2CNC[C@H]1C2`: the inhibition constant (Ki) in assay [1] is 78 nM; in assay [2] it was more than 10000 nM; in assay [3], 32 nM.

Turning to `O=C(CCF)N1C[C@H]2CNC[C@@H]1C2`, the results for the inhibition constant Ki in assay [1] and in assay [2] (setting [4]) were 2400 nM and 2300 nM, respectively.

Turning to `O=C(C1CCC1)N1C[C@@H]2CN[C@@H](C2)C1`, the Ki in assay [1] turned out to be 13 nM; in assay [2], 370 nM; in assay [3], 14 nM.

For the molecule `O=C(CCF)N1C[C@@H]2CN[C@@H](C2)C1`, the Ki came to 27 nM in assay [1], 950 nM in assay [2] (setting [4]) and 31 nM in assay [3].

Turning to `O=C(C1CC=CC1)N1C[C@@H]2CN[C@@H](C2)C1`, the Ki in assay [1] (SH-EP1/human α4β2 cell membranes, 5 nM [3H]nicotine) came to 420 nM; in assay [2] it was 29 nM; in assay [3] (setting [5]) it was 330 nM.

With `O=C(C1C[C@H]1F)N1CC2CNC(C2)C1` (some centres unmarked), the inhibition constant Ki in assay [1] came to 11 nM; in assay [2] it was 630 nM; in assay [3], 21 nM.

Turning to `O=C(C1CC1(F)F)N1C[C@@H]2CN[C@@H](C2)C1` (some centres unmarked), the values for the Ki in assay [1], in assay [2] (setting [4]) and in assay [3] were 11 nM, 670 nM and 11 nM, respectively.

In the case of `CCC(=O)N1C[C@@H]2CN[C@@H](C2)C1`, the Ki in assay [1] was 24 nM; in assay [2], 2000 nM; in assay [3] it was 30 nM.

In the case of `O=C(C1CC1)N1C[C@@H]2CN[C@@H](C2)C1`, the Ki amounted to 7.3 nM in assay [1], 98 nM in assay [2] and 14 nM in assay [3].

For the molecule `O=C(C1CCC1)N1C[C@H]2CNC[C@@H]1C2`, the results for the Ki in assay [1] and in assay [2] were 180 nM and 1500 nM, respectively.

`CC1CC1C(=O)N1C[C@@H]2CN[C@@H](C2)C1` (some centres unmarked): the results for the Ki in assay [1], in assay [2] and in assay [3] were 6.8 nM, 460 nM and 4.8 nM, respectively.

Turning to `O=C([C@H]1C[C@H]1F)N1C[C@H]2CNC[C@@H]1C2`, the values for the Ki in assay [1], in assay [2] and in assay [3] were 68 nM, 1300 nM and 170 nM, respectively.

Consider `O=C(C1C[C@@H]1F)N1CC2CNC(C2)C1` (some centres unmarked), for which the Ki in assay [1] was found to be 14 nM; in assay [2], 260 nM; in assay [3] it was 22 nM.

For the molecule `O=C(C1CCC1)N1C[C@H]2CN[C@H](C2)C1`, the Ki was 1.6 nM in assay [1], 440 nM in assay [2] and 2.2 nM in assay [3].

On to `O=C(C1CC1)N1C[C@H]2CN[C@H](C2)C1`, for which the Ki in assay [1] amounted to 0.8 nM; in assay [2] (setting [4]) it was 190 nM; in assay [3] it was 0.5 nM.

As to `O=C(C1CC=CC1)N1C[C@H]2CN[C@H](C2)C1`, the figures for the Ki in assay [1], in assay [2] and in assay [3] were 4.4 nM, 65 nM and 5.5 nM, respectively.

Regarding `O=C(C1CCCC1)N1C[C@@H]2CN[C@@H](C2)C1`, the Ki in assay [1] was 160 nM; in assay [2] (setting [4]), 130 nM; in assay [3], 130 nM.

`CC(C)C(=O)N1C[C@@H]2CN[C@@H](C2)C1`: the Ki in assay [1] turned out to be 380 nM; in assay [2], 220 nM; in assay [3], 380 nM.

Consider `CCCC(=O)N1C[C@@H]2CN[C@@H](C2)C1`, for which the Ki came out at 18 nM in assay [1], 160 nM in assay [2] and 18 nM in assay [3].

Consider `CC(C)C(=O)N1C[C@H]2CNC[C@@H]1C2`, for which the Ki was determined as 770 nM in assay [1] and 890 nM in assay [2] (setting [4]).
